Experimental data published in patent US10918728B2, “Compositions and methods for increasing efficiency of cardiac metabolism” (IMBRIA PHARMACEUTICALS, INC., priority 2017, dated 2021).
Values belong to the compound of their own block, whether it stands above or below them.

Assay: Stability of CV-8972 in aqueous solution at different concentrations and pH
Assay type: physicochemical
Experimental: The stability of CV-8972 was analyzed. Aqueous samples containing CV-8972 at different concentrations and pH were incubated for various periods and analyzed.
Form A of CV-8972 were analyzed for stability in aqueous solution. Aqueous samples containing CV-8972 at different concentrations and pH were incubated for various periods and analyzed.

Retention Time 5.6 (CV-8972 purity) (2 mg/mL pH 6 (Form A), 1 hrs, PH 6.1): 97.22
Retention Time 5.6 (CV-8972 purity) (2 mg/mL pH 6 (Form A), 4 hrs, PH 6.1): 97.01
Retention Time 5.6 (CV-8972 purity) (2 mg/mL pH 6 (Form A), 6 hrs, PH 6.1): 96.51
Retention Time 5.6 (CV-8972 purity) (2 mg/mL pH 7 (Form A), 1 hrs, PH 6.8): 95.06
Retention Time 5.6 (CV-8972 purity) (2 mg/mL pH 7 (Form A), 4 hrs, PH 6.7): 93.7
Retention Time 5.6 (CV-8972 purity) (2 mg/mL pH 7 (Form A), 6 hrs, PH 6.7): 92.12
Retention Time 5.6 (CV-8972 purity) (2 mg/mL pH 7 (Form A), 22 hrs, PH 6.8): 91.07
Retention Time 5.6 (CV-8972 purity) (10 mg/mL pH 6 (Form A), 1 hrs, PH 6.8): 93.43
Retention Time 5.6 (CV-8972 purity) (10 mg/mL pH 6 (Form A), 4 hrs, PH 6.8): 91.82
Retention Time 5.6 (CV-8972 purity) (10 mg/mL pH 6 (Form A), 6 hrs, PH 6.7): 91.8
Retention Time 5.6 (CV-8972 purity) (10 mg/mL pH 6 (Form A), 22 hrs, PH 6.7): 89.66
Retention Time 5.6 (CV-8972 purity) (10 mg/mL pH 7 (Form A), 1 hrs, PH 7.2): 89.05
Retention Time 5.6 (CV-8972 purity) (10 mg/mL pH 7 (Form A), 4 hrs, PH 7.1): 86.8
Retention Time 5.6 (CV-8972 purity) (10 mg/mL pH 7 (Form A), 6 hrs, PH 7.1): 84.79
SMILES: COc1ccc(CN2CCN(CCOC(=O)c3cccnc3)CC2)c(OC)c1OC.Cl.O [276-MBA-172]

Retention Time 5.6 (CV-8972 purity) (2 mg/mL pH 6 (Form B), 1 hrs, PH 6.9): 95.1
Retention Time 5.6 (CV-8972 purity) (2 mg/mL pH 6 (Form B), 4 hrs, PH 6.8): 92.45
Retention Time 5.6 (CV-8972 purity) (2 mg/mL pH 6 (Form B), 6 hrs, PH 6.8): 90.65
Retention Time 5.6 (CV-8972 purity) (2 mg/mL pH 6 (Form B), 22 hrs, PH 6.7): 89.15
Retention Time 5.6 (CV-8972 purity) (2 mg/mL pH 7 (Form B), 1 hrs, PH 6.6): 95.46
Retention Time 5.6 (CV-8972 purity) (2 mg/mL pH 7 (Form B), 4 hrs, PH 6.5): 93.92
Retention Time 5.6 (CV-8972 purity) (10 mg/mL pH 6 (Form B), 1 hrs, PH 6.1): 94.81
Retention Time 5.6 (CV-8972 purity) (10 mg/mL pH 6 (Form B), 4 hrs, PH 6): 94.69
Retention Time 5.6 (CV-8972 purity) (10 mg/mL pH 6 (Form B), 6 hrs, PH 5.9): 94.39
Retention Time 5.6 (CV-8972 purity) (10 mg/mL pH 6 (Form B), 22 hrs, PH 5.9): 93.93
Retention Time 5.6 (CV-8972 purity) (10 mg/mL pH 7 (Form B), 1 hrs, PH 7.4): 86.18
Retention Time 5.6 (CV-8972 purity) (10 mg/mL pH 7 (Form B), 4 hrs, PH 7.4): 82.36
Retention Time 5.6 (CV-8972 purity) (10 mg/mL pH 7 (Form B), 6 hrs, PH 7.3): 79.37
SMILES: COc1ccc(CN2CCN(CCOC(=O)c3cccnc3)CC2)c(OC)c1OC.Cl.O [289-MBA-15-A]
